{"source": "patent US20150133397A1", "about": "“METHOD OF REDUCING FASTING INSULIN LEVELS IN MTHFR GENE DEFICIENT SUBJECTS WITH NORMAL TO SLIGHTLY ELEVATED HEMOGLOBIN A1C” (priority 2013, published 2015)", "key": {"[1]": {"conditions": "MTHFR677 tt, retested 6 months later", "source_text": "(§1) The test subject was given a fasting insulin test."}, "[2]": {"conditions": "MTHFR677 tt, retested 6 months later", "remark": "listed apart in the source", "source_text": "The HbA1C test is a common blood test used to diagnose type 1 and type 2 diabetes and then to gauge how well the subject is managing diabetes or the subjects risk of becoming diabetic. The A1C test result reflects the subjects average blood sugar level for the past two to three months. Specifically, the A1C test measures what percentage of the subject's hemoglobin is coated with sugar (glycated). […] According to the American Diabetes Association guidelines a HbA1C of between 4 and 5.6% falls within normal parameters, HbA1C between 5.7 and 6.4% are considered slightly elevated and indicate a prediabetic state as where HbA1C of greater than 6.5% is considered diabetic.\nas §1"}}, "note": "Like-named read-outs stand apart in the source and are kept apart here."}
{"smiles": "CN1c2c([nH]c(N)nc2=O)NC[C@@H]1CNc1ccc(C(=O)N[C@@H](CCC(=O)O)C(=O)O)cc1", "note": "[L-methylfolate]", "values": [{"measurement": "fasting insulin level", "setting": "[1]; Example 1: person, 3 mgs L-methylfolate with 2 mgs methyl B12 once daily, before treatment 40 μU/ml", "value": 9, "unit": "μU/ml"}, {"measurement": "fasting insulin level", "setting": "[1]; Example 2: person, 15 mgs L-methylfolate with 2 mgs methyl B12 once daily, before treatment 100 μU/ml", "value": 11, "unit": "μU/ml"}, {"measurement": "HbA1C", "setting": "[2]; Example 1: person, 3 mgs L-methylfolate with 2 mgs methyl B12 once daily, before treatment 4.9%", "value": 4.9, "unit": "%"}, {"measurement": "HbA1C", "setting": "[2]; Example 2: person, 15 mgs L-methylfolate with 2 mgs methyl B12 once daily, before treatment 5.3%", "value": 5.3, "unit": "%"}]}
